Experimental findings from patent US20150232856A1, “TELOMERASE INHIBITORS FOR USE IN THERAPY” (AGENCY FOR SCIENCE, TECHNOLOGY AND RESEARCH, priority 2012, published 2015) are described below.

The structures appear in SMILES notation.

The test system of the assay is TNFα induced cell death. The assay can be described thus: Cell death assay, TNFα dose response (trypan blue). In kind it is cell-based, human. The conditions noted are these: 2 μM MST-312 prior to TNFα dose response (FIG. 2G). On the procedure: G. Cell death assay: 70,000 cells were plated in 12-well plates in duplicates for each condition. Cells were treated with 2 μM MST-312 prior to TNFα dose response. The treatments were done as indicated and all cells (adherent and floating) were collected, mixed with trypan blue and counted by haemocytometer. The number of dead cells is represented as percentage of the total cells.
Cells were plated 7×10^4 per well of a 12-well plate in duplicates for 24 hrs. They were treated doxorubicin or TNFα for 24 and 48 hrs. Thereafter, all cells in the supernatant as well as adherent were collected from each well and resuspended in equal volume of 1×PBS. The cells were diluted 1:10 in PBS and equal volume of trypan blue dye was added to each sample. […] Cell death is presented as the percentage of dead cells compared to total cells for each well.

Turning to `O=C(Nc1cccc(NC(=O)c2cccc(O)c2O)c1)c1cccc(O)c1O` [MST-312, N,N′-1,3-Phenylenebis-[2,3-dihydroxy-benzamide]], the “TNFα induced cell death” value is “sensitized cells to TNFα induced cell death”.
